# Measurements as given in patent publication US20250134855A1, “CO[…] AND METHODS OF USING SAME” (LYKOS THERAPEUTICS, INC., priority 2022, published 2025).
# Experiments:
# human plasma proteins = conditions: literature (Wan Aasim 2017); cited from earlier work
# OATP1B3 [1] = biological target: T1, OATP1B3 (Homo sapiens, UniProt Q9NPD5); assay: Transporter substrate assessment, OATP1B3
# OATP1B3 [2] = biological target: T1, OATP1B3; assay: Transporter inhibition, OATP1B3
# [3] = test system: participants with PTSD of moderate or greater severity; assay: MAPP2 Phase 3: safety, adverse events; type: in vivo, human
# Protocol: MAPP2 was a Phase 3 randomized, placebo-controlled, 2-arm, double-blind, multi-site study conducted to investigate the efficacy and safety of MDMA-AT in participants with PTSD of moderate or greater severity. This study included 3 experimental sessions of therapy combined with either MDMA or placebo. During Experimental Session 1, participants received a split dose of 120 mg (80 mg+40 mg). Participants received an escalated split dose of 180 mg during Experimental Sessions 2 and 3 unless there were tolerability issues or the participant declined.
# Overall, 102 (98.1%) participants reported at least 1 TEAE during the study period (Table 52riod (Table 52riod (Table 52). Of these, 2 (3.9%) participants from the placebo group were discontinued due to TEAE (abdominal pain and suicidal ideation). There were no serious TEAEs or deaths reported during the study. Adverse events of special interest included a subset of AEs involving cardiac function, suicidality, and MDMA abuse. There were 6 (11.3%) participants in the MDMA group and 3 (5.9%) participants in the placebo group with an TEAE of special interest. AESIs related to suicidality were reported in 2 MDMA participants and 2 placebo participants. AESIs related to cardiac function were reported in 4 MDMA participants and 1 placebo participant (all palpitations). […] A listing of all TEAEs from MDMA-AT group with ≥5% incidence and twice the prevalence of placebo group is provided below in Table 44 Table 44 Table 44.
# CHO-WBL cells = assay: Chromosomal aberrations in CHO-WBL cells; type: cell-based; conditions: with and without metabolic activation
# T1 sequence (Q9NPD5 whole entry): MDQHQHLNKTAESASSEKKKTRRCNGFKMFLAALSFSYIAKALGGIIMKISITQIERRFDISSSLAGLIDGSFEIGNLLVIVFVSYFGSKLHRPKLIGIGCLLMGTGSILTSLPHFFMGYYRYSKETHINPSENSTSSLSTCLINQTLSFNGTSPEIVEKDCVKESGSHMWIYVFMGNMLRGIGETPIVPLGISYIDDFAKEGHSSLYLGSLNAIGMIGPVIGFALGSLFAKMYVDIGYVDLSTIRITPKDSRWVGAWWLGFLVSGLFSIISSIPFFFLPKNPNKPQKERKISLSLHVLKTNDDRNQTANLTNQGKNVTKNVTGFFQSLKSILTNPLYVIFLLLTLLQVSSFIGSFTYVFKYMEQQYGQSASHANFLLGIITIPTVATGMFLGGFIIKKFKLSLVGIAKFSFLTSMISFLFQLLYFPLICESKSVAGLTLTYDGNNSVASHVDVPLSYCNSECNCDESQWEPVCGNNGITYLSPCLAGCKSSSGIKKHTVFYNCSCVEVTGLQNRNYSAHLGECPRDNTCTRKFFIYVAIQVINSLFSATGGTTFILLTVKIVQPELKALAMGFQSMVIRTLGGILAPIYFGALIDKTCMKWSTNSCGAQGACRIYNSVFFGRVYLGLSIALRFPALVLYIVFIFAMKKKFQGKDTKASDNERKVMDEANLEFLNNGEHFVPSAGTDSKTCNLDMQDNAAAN
compound,measurement,setting,value
"CNC(C)Cc1ccc2c(c1)OCO2 (stereo not drawn) [MDMA, 3,4-methylenedioxymethamphetamine]",bound to plasma proteins in humans,human plasma proteins,51%
same,substrate of OATP1B3,OATP1B3 [1],not a substrate
same,inhibition of OATP1B3,OATP1B3 [2],not an inhibitor
same,AESIs of MDMA abuse,[3]; MAPP2,no AESIs of MDMA abuse
same,"TEAE Abdominal pain upper, %",[3]; MAPP2,(9.4) %
same,"TEAE Bruxism, %",[3]; MAPP2,(13.2) %
same,"TEAE Chest discomfort, %",[3]; MAPP2,(17.0) %
same,"TEAE Chills, %",[3]; MAPP2,(15.1) %
same,"TEAE Decreased appetite, %",[3]; MAPP2,(35.8) %
same,"TEAE Dissociation, %",[3]; MAPP2,(5.7) %
same,"TEAE Dry mouth, %",[3]; MAPP2,(17.0) %
same,"TEAE Feeling abnormal, %",[3]; MAPP2,(9.4) %
same,"TEAE Feeling cold, %",[3]; MAPP2,(20.8) %
same,"TEAE Feeling hot, %",[3]; MAPP2,(26.4) %
same,"TEAE Feeling jittery, %",[3]; MAPP2,(15.1) %
same,"TEAE Feeling of body temperature change, %",[3]; MAPP2,(9.4) %
same,"TEAE Flushing, %",[3]; MAPP2,(5.7) %
same,"TEAE Gait disturbance, %",[3]; MAPP2,(5.7) %
same,"TEAE Heart rate increased, %",[3]; MAPP2,(5.7) %
same,"TEAE Hyperhidrosis, %",[3]; MAPP2,(34.0) %
same,"TEAE Hypoaesthesia, %",[3]; MAPP2,(9.4) %
same,"TEAE Muscle spasms, %",[3]; MAPP2,(7.5) %
same,"TEAE Muscle tightness, %",[3]; MAPP2,(58.8) %
same,"TEAE Mydriasis, %",[3]; MAPP2,(11.3) %
same,"TEAE Nausea, %",[3]; MAPP2,(45.3) %
same,"TEAE Nystagmus, %",[3]; MAPP2,(13.2) %
same,"TEAE Palpitations, %",[3]; MAPP2,(9.4) %
same,"TEAE Panic attack, %",[3]; MAPP2,(5.7) %
same,"TEAE Paraesthesia, %",[3]; MAPP2,(18.9) %
same,"TEAE Restlessness, %",[3]; MAPP2,(15.1) %
same,"TEAE Thirst, %",[3]; MAPP2,(7.5) %
same,"TEAE Tremor, %",[3]; MAPP2,(11.3) %
same,"TEAE Vision blurred, %",[3]; MAPP2,(15.1) %
same,"TEAE Visual impairment, %",[3]; MAPP2,(5.7) %
same,participants with an TEAE of special interest,[3]; MAPP2,11.3%
same,"At least one TEAE of Special Interest, %","[3]; MAPP2, Safety Set",(11.3) %
same,"At least one Treatment-emergent SAE Leading to Death, %","[3]; MAPP2, Safety Set",(0.0) %
same,"At least one Treatment-emergent SAE, %","[3]; MAPP2, Safety Set",(0.0) %
same,"Discontinued study treatment due to any TEAE(s), %","[3]; MAPP2, Safety Set",(0.0) %
same,"Participants with at least 1 TEAE during Experimental Sessions and 2 Days Following, %","[3]; MAPP2, Safety Set",(100.0) %
same,"Subjects with at least 1 Severe TEAE, %","[3]; MAPP2, Safety Set",(9.4) %
same,"Subjects with at least 1 TEAE, %","[3]; MAPP2, Safety Set",(100.0) %
same,heart rate and blood pressure during experimental sessions,"[3]; MAPP2, dose-dependent, no clinical intervention required",transient increases
same,participants with at least 1 temporally related TEAE,"[3]; MAPP2, during an experiment session or up to 2 days following",All participants
same,chromosomal aberrations,CHO-WBL cells,no signs of chromosomal aberrations
